Measured values published in ChEMBL document CHEMBL5576135, “Discovery of Indolo[3,2-c]isoquinoline Derivatives as Novel Top1/2 Dual Inhibitors with Orally Efficacious Antitumor Activity and Low Toxicity” (J Med Chem, 2024).
The source made the active and inactive calls. No cut-off for these calls is given here.

Legend:
[1] = Toxicity in Kunming mouse assessed as morphological change in lung at 100 mg/kg,po administration for 2 weeks; assay type: organism-based; conditions: in vivo, 336 h
[2] = Toxicity in Kunming mouse assessed as change in body weight at 100 mg/kg,po administration for 2 weeks; assay type: organism-based; conditions: in vivo, 336 h
[3] = Toxicity in Kunming mouse assessed as change in serum AST level at 100 mg/kg,po administration for 2 weeks; assay type: organism-based; conditions: in vivo, 336 h
[4] = target: DNA topoisomerase 2-alpha (Homo sapiens) (UniProt P11388); assay: Inhibition of Topoisomerase 2 (unknown origin) using pBR322 DNA as substrate at 50 uM incubated for 15 mins by EtBr staining based agarose gel electrophoresis method
Huh-7 = assay: Antiproliferative activity against human Huh-7 cells assessed as inhibition of cell growth incubated for 96 hrs by MTT based ELISA; assay type: functional; conditions: Huh-7, 96 h
NCI-H2228 = assay: Antiproliferative activity against human NCI-H2228 cells assessed as inhibition of cell growth incubated for 96 hrs by MTT based ELISA; assay type: functional; conditions: NCI-H2228, 96 h
[5] = target: DNA topoisomerase 2-alpha (Homo sapiens) (UniProt P11388); assay: Inhibition of Topoisomerase 2 (unknown origin) using pBR322 DNA as substrate at 100 uM incubated for 15 mins by EtBr staining based agarose gel electrophoresis method relative to control
NCI-H446 [6] = assay: Induction of DNA damage in human NCI-H446 cells assessed as increase in intracellular ROS level at 4 to 8 uM incubated for 6 hrs by DCFHDA probe based fluorescence microscopic analysis; assay type: functional, cell-based; conditions: dose 4-8 µM
NCI-H446 [7] = assay: Inhibition of cell migration in human NCI-H446 cells at 2 uM incubated for 48 hrs by phase-contrast microscopic analysis relative to control; assay type: functional
[8] = Toxicity in Kunming mouse assessed as morphological change in heart at 100 mg/kg,po administration for 2 weeks; assay type: organism-based; conditions: in vivo, 336 h
Cell membrane = assay: Induction of mitochondrial membrane potential loss in human NCI-H446 cells at 8 uM incubated for 24 hrs by JC-1 staining based flow cytometry; assay type: cell membranes
[9] = AUC (0 to t) in ICR mouse at 10 mg/kg,po measured upto 24 hrs by LC-MS/MS analysis; assay type: ADME, organism-based; conditions: in vivo
[10] = Toxicity in Kunming mouse assessed as lethal dose at po administration for 2 weeks; assay type: organism-based; conditions: in vivo
NCI-H446 [11] = assay: Induction of DNA damage in human NCI-H446 cells assessed as tail DNA at 8 uM incubated for 48 hrs by comet assay relative to control; assay type: functional
NCI-H446 [12] = assay: Induction of cell cycle arrest in human NCI-H446 cells assessed as accumulation of cells at S phase at 1 to 2 uM incubated for 48 hrs by propidium iodide/RNase A staining based flow cytometry; assay type: functional; conditions: dose 1-2 µM
PC-3 = assay: Antiproliferative activity against human PC-3 cells assessed as inhibition of cell growth incubated for 96 hrs by MTT based ELISA; assay type: functional; conditions: PC-3, 96 h
[13] = target: T1, DNA topoisomerase 1 (Homo sapiens) (UniProt P11387); assay: Inhibition of Topoisomerase I (unknown origin) using pBR322 DNA as substrate at 50 uM incubated for 15 mins by EtBr staining based agarose gel electrophoresis method
T1 sequence (whole entry): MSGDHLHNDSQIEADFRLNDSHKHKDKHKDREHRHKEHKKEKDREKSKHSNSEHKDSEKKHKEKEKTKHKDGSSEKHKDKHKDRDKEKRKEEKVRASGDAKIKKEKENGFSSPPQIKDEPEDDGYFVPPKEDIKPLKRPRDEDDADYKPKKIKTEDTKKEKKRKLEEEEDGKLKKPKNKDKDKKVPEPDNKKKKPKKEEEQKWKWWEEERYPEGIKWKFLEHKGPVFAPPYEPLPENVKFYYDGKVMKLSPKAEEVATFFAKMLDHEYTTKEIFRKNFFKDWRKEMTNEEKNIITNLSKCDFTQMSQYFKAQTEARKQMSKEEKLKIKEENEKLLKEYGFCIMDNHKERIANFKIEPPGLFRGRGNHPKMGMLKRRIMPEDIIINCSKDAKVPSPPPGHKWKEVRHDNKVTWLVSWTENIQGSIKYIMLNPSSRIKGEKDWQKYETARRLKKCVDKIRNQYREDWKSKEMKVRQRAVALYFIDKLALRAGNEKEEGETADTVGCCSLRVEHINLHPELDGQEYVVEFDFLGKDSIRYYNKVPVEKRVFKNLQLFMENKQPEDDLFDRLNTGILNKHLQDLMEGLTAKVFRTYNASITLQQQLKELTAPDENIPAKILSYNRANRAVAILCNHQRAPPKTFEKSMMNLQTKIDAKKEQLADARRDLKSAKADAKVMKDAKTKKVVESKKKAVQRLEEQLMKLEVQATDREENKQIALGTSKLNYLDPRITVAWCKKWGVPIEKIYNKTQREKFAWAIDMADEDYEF

NCI-H446 [14] = assay: Induction of DNA damage in human NCI-H446 cells assessed as increase in intracellular gamma-H2AX level at 2 to 8 uM incubated for 48 hrs by Western blotting analysis; assay type: functional, cell-based; conditions: dose 2-8 µM
NCI-H1650 = assay: Antiproliferative activity against human NCI-H1650 cells assessed as inhibition of cell growth incubated for 96 hrs by MTT based ELISA; assay type: functional; conditions: NCI-H1650, 96 h
[15] = target: DNA topoisomerase 2-alpha (Homo sapiens) (UniProt P11388); assay: Inhibition of Topoisomerase 2 (unknown origin) using pBR322 DNA as substrate at 0.5 uM incubated for 15 mins by EtBr staining based agarose gel electrophoresis method
[16] = target: T1, DNA topoisomerase 1 (Homo sapiens); assay: Inhibition of Topoisomerase I (unknown origin) using pBR322 DNA as substrate at 200 uM incubated for 15 mins by EtBr staining based agarose gel electrophoresis method relative to control
[17] = Toxicity in Kunming mouse assessed as change in organ coefficient of lung at 100 mg/kg,po administration for 2 weeks; assay type: organism-based; conditions: in vivo, 336 h
NCI-H446 [18] = assay: Inhibition of colony formation in human NCI-H446 cells at 1 uM incubated for 24 hrs by crystal violet staining based analysis relative to control; assay type: functional
[19] = Cmax in ICR mouse at 10 mg/kg,po measured upto 24 hrs by LC-MS/MS analysis; assay type: ADME, organism-based; conditions: in vivo
NCI-H446 [20] = assay: Induction of cell cycle arrest in human NCI-H446 cells assessed as accumulation of cells at S phase at 2 uM incubated for 48 hrs by propidium iodide/RNase A staining based flow cytometry relative to control; assay type: functional
HCT-116 = assay: Antiproliferative activity against human HCT-116 cells assessed as inhibition of cell growth incubated for 96 hrs by MTT based ELISA; assay type: functional; conditions: HCT-116, 96 h
[21] = Tmax in ICR mouse at 10 mg/kg,po measured upto 24 hrs by LC-MS/MS analysis; assay type: ADME, organism-based; conditions: in vivo
MDA-MB-231 = assay: Antiproliferative activity against human MDA-MB-231 cells assessed as inhibition of cell growth incubated for 96 hrs by MTT based ELISA; assay type: functional; conditions: MDA-MB-231, 96 h
[22] = Toxicity in Kunming mouse assessed as morphological change in kidney at 100 mg/kg,po administration for 2 weeks; assay type: organism-based; conditions: in vivo, 336 h
MCF7 = assay: Antiproliferative activity against human MCF7 cells assessed as inhibition of cell growth incubated for 96 hrs by MTT based ELISA; assay type: functional; conditions: MCF7, 96 h

Sequence of DNA topoisomerase 2-alpha (Homo sapiens) (P11388 whole entry): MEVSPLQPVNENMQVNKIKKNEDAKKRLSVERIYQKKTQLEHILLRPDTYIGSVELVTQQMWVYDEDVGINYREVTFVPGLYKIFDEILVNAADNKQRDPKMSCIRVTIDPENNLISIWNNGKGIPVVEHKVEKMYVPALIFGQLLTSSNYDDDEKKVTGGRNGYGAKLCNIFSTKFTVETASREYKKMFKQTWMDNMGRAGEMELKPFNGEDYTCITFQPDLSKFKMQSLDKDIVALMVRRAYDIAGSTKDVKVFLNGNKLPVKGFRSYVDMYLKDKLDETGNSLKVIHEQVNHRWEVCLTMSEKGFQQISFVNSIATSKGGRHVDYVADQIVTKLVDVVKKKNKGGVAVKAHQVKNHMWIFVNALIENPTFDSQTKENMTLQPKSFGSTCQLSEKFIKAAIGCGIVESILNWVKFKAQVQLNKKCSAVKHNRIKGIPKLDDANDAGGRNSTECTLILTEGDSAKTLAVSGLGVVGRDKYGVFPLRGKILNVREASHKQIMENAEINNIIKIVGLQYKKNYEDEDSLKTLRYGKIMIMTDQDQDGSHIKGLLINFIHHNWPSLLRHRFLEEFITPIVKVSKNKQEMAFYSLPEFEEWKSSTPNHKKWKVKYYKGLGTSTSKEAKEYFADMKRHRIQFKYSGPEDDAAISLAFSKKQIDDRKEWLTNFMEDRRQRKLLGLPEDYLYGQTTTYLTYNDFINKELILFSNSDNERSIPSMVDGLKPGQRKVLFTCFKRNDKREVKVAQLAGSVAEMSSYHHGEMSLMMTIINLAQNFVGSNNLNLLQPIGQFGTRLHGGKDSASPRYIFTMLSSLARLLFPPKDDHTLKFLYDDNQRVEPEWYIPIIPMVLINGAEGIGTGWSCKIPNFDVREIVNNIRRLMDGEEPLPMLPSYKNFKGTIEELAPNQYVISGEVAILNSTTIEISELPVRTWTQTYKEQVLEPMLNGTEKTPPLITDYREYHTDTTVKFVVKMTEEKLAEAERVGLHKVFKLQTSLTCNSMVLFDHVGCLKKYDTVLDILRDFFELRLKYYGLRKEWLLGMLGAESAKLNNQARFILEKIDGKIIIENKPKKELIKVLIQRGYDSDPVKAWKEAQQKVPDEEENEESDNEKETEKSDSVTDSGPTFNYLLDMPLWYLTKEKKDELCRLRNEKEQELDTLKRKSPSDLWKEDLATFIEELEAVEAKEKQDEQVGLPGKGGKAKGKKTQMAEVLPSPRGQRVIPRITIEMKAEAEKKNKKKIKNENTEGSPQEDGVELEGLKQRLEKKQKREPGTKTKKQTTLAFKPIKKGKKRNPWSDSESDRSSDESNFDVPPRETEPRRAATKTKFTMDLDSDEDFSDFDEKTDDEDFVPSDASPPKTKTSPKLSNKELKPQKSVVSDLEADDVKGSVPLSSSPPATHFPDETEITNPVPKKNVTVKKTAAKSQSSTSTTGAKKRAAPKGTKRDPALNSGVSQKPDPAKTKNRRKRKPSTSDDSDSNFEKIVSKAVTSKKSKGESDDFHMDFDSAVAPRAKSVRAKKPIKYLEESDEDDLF

| SMILES | Activity [1] | Activity [2] | Activity [3] | inhibition [4] | IC50 (Huh-7) [nM] | IC50 (NCI-H2228) [nM] | inhibition [5] [%] | Activity (NCI-H446 [6]) | inhibition at 2 µM (NCI-H446 [7]) [%] | Activity [8] | Activity (Cell membrane) | AUC(0-t) at 24 h [9] [ng·h/mL] | LD50 at 336 h [10] [mg/kg] | Activity (NCI-H446 [11]) [%] | Activity (NCI-H446 [12]) | IC50 (PC-3) [nM] | inhibition [13] | Activity (NCI-H446 [14]) | IC50 (NCI-H1650) [nM] | inhibition [15] | also measured |
| --- | --- | --- | --- | --- | --- | --- | --- | --- | --- | --- | --- | --- | --- | --- | --- | --- | --- | --- | --- | --- | --- |
| COc1ccc2c(c1)c1ncc3ccccc3c1n2CCCC(=O)NO | Non-Toxic | Non-Toxic | Non-Toxic | Active | 2500 | 2340 | > 95 | Active | 73.2 | Non-Toxic | Active | 244 | > 1000 | 54.8 | Active | 970 | Active | Active | 1020 | Active | inhibition [16]: > 95%; Activity [17]: Non-Toxic; inhibition at 1 µM (NCI-H446 [18]): > 90%; Cmax [19]: 109 ng/mL; Activity (NCI-H446 [20]): 60.3%; IC50 (HCT-116): 530 nM; Tmax [21]: 1 h; IC50 (MDA-MB-231): 550 nM; Activity [22]: Non-Toxic; IC50 (MCF7): 670 nM |
| CN(C)CCCn1c2cc3c(cc2c2ncc4ccccc4c21)OCO3 | Non-Toxic | Non-Toxic | Non-Toxic | Active | 830 | 880 | > 95 | Active | 77.1 | Non-Toxic | Active | 2040 | > 1000 | 65.4 | Active | 400 | Active | Active | 880 | Active | inhibition [16]: > 95%; Activity [17]: Non-Toxic; inhibition at 1 µM (NCI-H446 [18]): > 90%; Cmax [19]: 284 ng/mL; Activity (NCI-H446 [20]): 61.1%; IC50 (HCT-116): 210 nM; Tmax [21]: 2 h; IC50 (MDA-MB-231): 290 nM; Activity [22]: Non-Toxic; IC50 (MCF7): 350 nM |
